Test results from patent publication US20150071856A1, “ANTAGONISTIC PEPTIDES FOR FRIZZLED-1 AND FRIZZLED-2” (Universiteit Maastricht, priority 2013, published 2015).
Residues, ends and D or L forms follow the SMILES beside them.

How the values were obtained:
myocardial infarction = assay: Hemodynamic measurements (Millar catheter, left ventricle) of mice after myocardial infarction; type: in vivo; conditions: UM206-treated groups post-MI
Method: Cardiac function was further assessed using a Millar pressure recording catheter inserted into the left ventricle. […] These observations further underscore the beneficial effect of UM206 treatment on cardiac function post-MI.
The animals were anaesthetized with urethane ([…], i.p., Sigma-Aldrich) followed by intubation and connected to a rodent ventilator (Hugo Sachs, March-Hugstetten, Germany). Body temperature was maintained at 37° C. The mice were then allowed to stabilize prior to hemodynamic measurements. A high-fidelity catheter tip micromanometer (Mikro-tip1.4F, SPR-671; Millar Instruments, Houston Tex., USA) was inserted through the right carotid artery into the left ventricular cavity. Ventricular pressure was measured. Maximal positive and negative pressure development (+dP/dt and −dP/dt) and heart rate were determined on a beat-to-beat basis. The heart was then stimulated by an i.v. ramp-infusion of dobutamine (Sigma-Aldrich) using a micro-injection pump (Model 200 Series, KdScientific, Boston, Mass., USA).

hFzd-4 = molecular target: T1, hFzd-4 (Homo sapiens, UniProt Q9ULV1); assay: Receptor specificity: luciferase in HEK293 superTOPflash cells overexpressing hFzd-4; type: cell-based; conditions: UM206 1.10^−8 M
T1 construct: expressed in transfected cells; host or cells: HEK293 superTOPflash (transient, Fugene6, pcDNA3.1/hygro)
T1 sequence (Q9ULV1 37-537): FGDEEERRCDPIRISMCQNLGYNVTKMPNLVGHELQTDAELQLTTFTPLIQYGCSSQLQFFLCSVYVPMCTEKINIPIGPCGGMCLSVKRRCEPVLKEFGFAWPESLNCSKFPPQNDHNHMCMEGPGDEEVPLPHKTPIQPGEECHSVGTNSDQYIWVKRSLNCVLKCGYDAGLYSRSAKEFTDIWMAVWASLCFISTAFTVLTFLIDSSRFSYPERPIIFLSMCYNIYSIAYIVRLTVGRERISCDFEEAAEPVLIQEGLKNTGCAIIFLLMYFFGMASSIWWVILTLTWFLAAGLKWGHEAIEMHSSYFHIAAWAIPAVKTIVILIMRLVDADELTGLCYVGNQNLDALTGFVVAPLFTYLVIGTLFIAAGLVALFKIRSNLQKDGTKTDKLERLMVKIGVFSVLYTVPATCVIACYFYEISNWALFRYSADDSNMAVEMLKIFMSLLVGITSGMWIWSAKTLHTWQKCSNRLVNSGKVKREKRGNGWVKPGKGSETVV
Method: In FIG. 3, Panel E, the efficacy of UM206 to block the Wnt3a-induced activation of luciferase activity in HEK293 superTOPflash cells transfected with different Fzds is shown.
The cell lines were cultured in 75 cm^2 culture flasks (Corning, Schiphol, the Netherlands) in Dulbeco's modified essential medium with L-glutamine (2 mM), 10% fetal calf serum (Invitrogen, Merelbeke, Belgium), and 1% gentamycin (Sigma-Aldrich, Zwijndrecht, The Netherlands). Before starting the experiment, the cell lines were treated with plasmocin 25 μg/ml (Invivogen, Toulose, France) and tested with a mycoalert mycoplasma detection kit (Lonza, Rockland Me., USA). Cells were transiently transfected with Fugene6 (Roche, Indianapolis Ind., USA) with plasmid DNA, pcDNA3.1/hygro (Invitrogen) with frizzled-1/2/4 or Wnts 3a-5a or with pcDNA3.0 (Invitrogen) containing the β-catenin or frizzled-5 sequence. After transfection, the cells were cultured for 24 hours in conditioned medium, collected from the cultured L-cells, L-cells with Wnt3a or 5a (Invitrogen). At the same moment the antagonist was added.

CSCC[C@H](NC(=O)CNC(=O)[C@H](CCC(=O)O)NC(=O)[C@H](CO)NC(=O)[C@@H](NC(=O)[C@H](CCCCN)NC(=O)[C@H](CC(N)=O)NC(=O)[C@H](CS)NC(C)=O)[C@@H](C)O)C(=O)N[C@@H](CC(=O)O)C(=O)NCC(=O)N[C@@H](CS)C(=O)N[C@@H](CCC(=O)O)C(=O)N[C@@H](CC(C)C)C(N)=O [UM206, Ac-Cys-Asn-Lys-Thr-Ser-Glu-Gly-Met-Asp-Gly-Cys-Glu-Leu-NH2] (Ac-CNKTSEGMDGCEL-NH2)
positive and negative dP/dt versus saline (myocardial infarction): higher positive dP/dt and a lower negative dP/dt value
effect on Wnt3a-induced luciferase activity, frizzled-4 (hFzd-4): no effect
